# Experimental data as given in patent US8748369B2, “Use of targeted nitroxide agents in bone healing” (University of Pittsburgh-Of the Commonwealth System of …, priority 2009, dated 2014).
# Where a SMILES comes first, the peptide text is derived from it. [ ]: non-standard residue; d: D form. The star is where a group is joined. NH(TEMPO-4-yl) = CC1(C)CC(N*)CC(C)(C)N1[O]; Orn = NCCC[C@H](N)C(=O)O; Cbz = O=C(OCc1ccccc1)*; Boc = CC(C)(C)OC(=O)*
# Experiments:
# [1] = Topical and transdermal absorption through mouse skin (Bronaugh diffusion cell, EPR); assay type: in vitro ADME; details: preliminary experiment
# Text: A small piece of skin (2 cm^2) was placed in a Bronaugh style flow-through diffusion cell system (PermeGear, Riegelsville, Pa.) (FIG. 22). It was then sandwiched between two pieces of the inert polymer Kel-F and clamped shut to prevent leakage. The epidermal side faces upward and is exposed to the donor solution (test solution), and the dermal side is in contact with the receptor fluid. The exposed surface area is 0.79 cm^2 (circular chamber with 1 cm diameter). The skin forms a water-tight seal in the flow through chamber so the receiving fluid (PBS+25% ethanol) on the dermal side will contain the XJB-5-125 only if it has penetrated through the skin. The receiver chamber was perfused with this buffer that then passes to a fraction collector via Teflon tubing. The PBS+25% ethanol was used because it is an effective sink for hydrophobic compounds and produces better in vitro/in vivo correlations than other receiver solutions. The skin was maintained at 32° C. by placing the chamber in a metal block heated via a recirculating water bath. […]
# EPR spectra were recorded at 334.7 mT, center field; 20 mW, power; 0.079 mT, field modulation; 5 mT, sweep width; 400 and 4000, receiver gain; 0.1 s, time constraint. […]
# Further, the total transdermal absorption after 24 hours and the level of XJB-5-125 present in the viable skin can be successfully measured using the techniques described herein. […]
# [2] = test system: mice exposed to total body irradiation; experiment: Survival of mice after total body irradiation; assay type: in vivo, mouse
# Description: Mice received intraperitoneal injection of 10 mg. per kilogram of each of the chemicals indicated in FIG. 5, then 24 hours later received 9.75 Gy total body irradiation according to published methods. Mice were followed for survival according to IACUC regulations. […] (P=0.0008).
# Groups of 15 mice received intraperitoneal injection of 10 mg. per kilogram of each indicated GS-nitroxide compound or carrier (Cremphora plus alcohol at 1 to 1 ratio, then diluted 1 to 10 in distilled water). Mice received 10 mg per kilogram intra-peritoneal injection 24 hours prior to total body irradiation. Control mice received radiation alone. […] (P=0.0005)
SMILES,penetration of intact skin [1],survival of mice exposed to 9.75 Gy total body irradiation ([2]; 10 mg per kilogram intraperitoneal 24 hours before irradiation),survival of mice exposed to 9.5 Gy total body irradiation ([2]; 10 mg per kilogram intraperitoneal 24 hours prior to irradiation)
CC(C)C[C@H](NC(=O)OC(C)(C)C)C(=O)N[C@H](Cc1ccccc1)C(=O)N1CCC[C@H]1C(=O)N[C@H](C(=O)N[C@@H](CCCNC(=O)OCc1ccccc1)C(=O)NC1CC(C)(C)N([O])C(C)(C)C1)C(C)C [XJB-5-125] (Boc-L[dF]PV[Orn](Cbz)-{NH(TEMPO-4-yl)}),can sufficiently penetrate intact skin,,
"CC(C)C[C@@H](/C=C/CC(=O)NC1CC(C)(C)N([O])C(C)(C)C1)NC(=O)OC(C)(C)C [JP4-039, (S,E)-5-(tert-Butoxycarbonylamino)-7-methyloct-3-enoic acid-TEMPO]",,significant increase in survival,increases survival
